The text below walks through data of patent publication US9238821B2, “Metabolic engineering for plant disease resistance” (The Samuel Roberts Noble Foundation, Inc., priority 2009, dated 2016).

This test concerns P. omnivora. Briefly: Fungal inhibition assay against P. omnivora on PDA medium. The conditions noted are these: for in vitro growth inhibitory activity against P. omnivora (in words): PDA medium, 0.1 mM and 0.5 mM; for Fungal growth score (arbitrary scale 0 to 5): 120 h, 0 = no fungal growth (best inhibition), 5 = best fungal growth (no inhibition), two replicate columns. Type of test: cell-based, Phymatotrichopsis omnivora.

Values joined by “and” are separate entries in the source; they are usually repeats but may differ in a detail not shown here. Identical values can stand only once. “Also recorded” adds a separate entry of the source.

For the molecule `O=c1cc(-c2ccc(O)cc2)oc2cc(O)c(O)cc12` [6,7,4′-trihydoxyflavone], the “in vitro growth inhibitory activity against P. omnivora (in words)” value was “not active”.
As for `O=C(/C=C/c1ccc(O)cc1)c1ccc(O)cc1O` [isoliquiritigenin], the “Fungal growth score (arbitrary scale 0 to 5)” value (“Fungal growth score” below) was found to be 4 (compound 0.1 mM in PDA medium) and 4 (compound 0.5 mM in PDA medium).
With `O=C1C[C@@H](c2ccc(O)cc2)Oc2cc(O)ccc21` [liquiritigenin], the “in vitro growth inhibitory activity against P. omnivora (in words)” value is “no inhibition activity”. Also, the “Fungal growth score” value (compound 0.1 mM in PDA medium) worked out at 5. In addition, the “Fungal growth score” value (compound 0.5 mM in PDA medium) worked out at 5.
`Oc1ccccc1O` [catechol, reference compound]: the “Fungal growth score” value runs as follows: (compound 0.1 mM in PDA medium) 2; (compound 0.5 mM in PDA medium) 0.
Take `COc1ccc(-c2coc3cc(O)ccc3c2=O)cc1` [formononetin, reference compound]: the “in vitro growth inhibitory activity against P. omnivora (in words)” value is reported as “not active”. Besides, the “Fungal growth score” value (compound 0.1 mM in PDA medium) amounted to 4. Also, the “Fungal growth score” value (compound 0.5 mM in PDA medium) was 4.
In the case of `O=c1cc(-c2ccc(O)cc2)oc2cc(O)ccc12` [7,4′-dihydroxyflavone], the “in vitro growth inhibitory activity against P. omnivora (in words)” value is “strongly inhibited; also recorded: inhibited; also recorded: substantial in vitro growth inhibitory activity; also recorded: inhibit growth”. The “Fungal growth score” value (compound 0.1 mM in PDA medium) turned out to be 3. The “Fungal growth score” value (compound 0.5 mM in PDA medium) was 0. For the same molecule, the “in vitro growth inhibitory activity against P. omnivora (in words)” value (listed as 7, 4′-dihydroxyflavone) was “substantial in vitro growth inhibitory activity”.
Regarding `O=c1cc(-c2ccc(O)cc2)oc2cc(O)cc(O)c12` [apigenin], the “in vitro growth inhibitory activity against P. omnivora (in words)” value is “not in vitro active”. The “Fungal growth score” value (compound 0.1 mM in PDA medium) is 5. Moreover, the “Fungal growth score” value (compound 0.5 mM in PDA medium) was determined as 5.
For medicarpin, the “in vitro growth inhibitory activity against P. omnivora (in words)” value is recorded as “strong inhibition; also recorded: inhibited; also recorded: substantial in vitro growth inhibitory activity; also recorded: inhibit growth”. For the same molecule, the “Fungal growth score” value (compound 0.1 mM in PDA medium) was 2 and 1. For the setting “compound 0.5 mM in PDA medium”, the “Fungal growth score” value is 1 and 0.
As to `O=C1C[C@@H](c2ccc(O)cc2)Oc2cc(O)cc(O)c21` [naringenin], the “in vitro growth inhibitory activity against P. omnivora (in words)” value was “no inhibition activity”. Also, the “Fungal growth score” value (compound 0.1 mM in PDA medium) is 4 and 5. In addition, where the note is “compound 0.5 mM in PDA medium”, the “Fungal growth score” value is 3 and 5.
